From ChEMBL document CHEMBL1138955, “Novel gamma-secretase inhibitors discovered by library screening of in-house synthetic natural product intermediates” (Bioorg Med Chem Lett, 2006) come the findings set out here.

Where only a bound is given, the exact number is not on record here.

The target in experiment [1] is Gamma-secretase. In words: Inhibition of beta amyloid protein 40. Type of experiment: protein-complex assay, Homo sapiens.
In experiment [2] the target is Gamma-secretase. Kind of experiment: Inhibition of beta amyloid protein 42. It counts as protein-complex assay, Homo sapiens.
Experiment [3] has as its target Gamma-secretase (Homo sapiens) (UniProt Q96BI3+Q9NZ42+Q8WW43+P49768+Q92542+P49810). In words: Inhibition of beta amyloid protein 40 at 100 uM. Type of experiment: protein-complex assay.

Regarding `CO[C@@H]1CC(O)CC(=O)[C@H]1OCc1ccccc1` (stereo partly drawn), the IC50 against Gamma-secretase [1] and on Gamma-secretase [2] was above 100 µM each time.

As to `CO[C@@H]1CCCC(=O)[C@H]1OCc1ccccc1`, the IC50 on Gamma-secretase [1] came to 4.9 µM; against Gamma-secretase [2] it was 13.9 µM.

As for `COC(=O)N1CCCC(=O)C1Cc1ccccc1` (stereo not drawn), the IC50 against Gamma-secretase [1] and against Gamma-secretase [2] was above 100 µM each time.

For `O=C1C=CCN(C(=O)OCc2ccccc2)C1Cc1ccccc1` (stereo not drawn), the 50% inhibitory concentration (IC50) against Gamma-secretase [1] was determined as 4.6 µM; on Gamma-secretase [2], 7.4 µM.

As for `O=C(OCc1ccccc1)N1CCCC(O)C1Cc1ccccc1` (stereo not drawn), the IC50 against Gamma-secretase [1] and on Gamma-secretase [2] was above 100 µM throughout.

On to `CO[C@@H]1C(=O)CCC[C@H]1OCc1ccccc1`, for which the IC50 against Gamma-secretase [1] and against Gamma-secretase [2] was above 100 µM in each case.

In the case of `O=C1C=CC[C@@H](OCc2ccccc2)[C@@H]1OCc1ccccc1`, the IC50 was 1.6 µM against Gamma-secretase [1] and 1.1 µM on Gamma-secretase [2].

As for `O=C1C=CC(O)N(C(=O)OCc2ccccc2)C1Cc1ccccc1` (stereo not drawn), the IC50 came out at 0.5 µM on Gamma-secretase [1] and 0.7 µM at Gamma-secretase [2].

Regarding `COC(=O)N1CCCC(O)C1Cc1ccccc1` (stereo not drawn), the IC50 on Gamma-secretase [1] and against Gamma-secretase [2] was above 100 µM in each case.

With `O=C1C=CCN(C(=O)c2ccccc2)C1Cc1ccccc1` (stereo not drawn), the IC50 on Gamma-secretase [1] is 1 µM; on Gamma-secretase [2], 2.2 µM.

As to `CO[C@@H]1C(=O)CCC[C@H]1O`, the IC50 against Gamma-secretase [1] and at Gamma-secretase [2] was above 100 µM each time.

As for `CO[C@@H]1C(=O)CC(O)C[C@H]1OCc1ccccc1` (stereo partly drawn), the IC50 at Gamma-secretase [1] and at Gamma-secretase [2] was above 100 µM throughout.

On Gamma-secretase [2], `O=C1CCCN(C(=O)OCc2ccccc2)C1Cc1ccccc1` (stereo not drawn) returned an IC50 above 100 µM. Besides, in experiment [3], the inhibition is 21%.

As for `CO[C@@H]1CCCC(=O)[C@H]1O`, the IC50 on Gamma-secretase [1] and on Gamma-secretase [2] was above 100 µM in each case.

Regarding `O=C1C=CCN(S(=O)(=O)c2ccccc2)C1Cc1ccccc1` (stereo not drawn), the IC50 against Gamma-secretase [1] amounted to 5.9 µM; against Gamma-secretase [2], 12.3 µM.

With `CO[C@@H]1CC=CC(=O)[C@H]1OCc1ccccc1`, the IC50 at Gamma-secretase [1] amounted to 6.9 µM; against Gamma-secretase [2], 10.2 µM.

In the case of `O=C1CCC[C@@H](OCc2ccccc2)[C@@H]1OCc1ccccc1`, the IC50 on Gamma-secretase [1] and against Gamma-secretase [2] was above 100 µM throughout.

As for `CO[C@@H]1C(=O)C=CC[C@H]1OCc1ccccc1`, the IC50 against Gamma-secretase [1] stood at 33.9 µM; against Gamma-secretase [2] it was 26 µM.

Consider `COC(=O)N1CC=CC(=O)C1Cc1ccccc1` (stereo not drawn), for which the half-inhibitory concentration (IC50) on Gamma-secretase [1] was determined as 7.2 µM; on Gamma-secretase [2], 9.8 µM.

As a reminder, the IC50 is the concentration needed to halve the response being measured. Read a high IC50 as lower potency. By inhibition is commonly meant the drop in the measured response relative to a control, in per cent. Read a high inhibition as a strong effect.
